This is an account of results in the supplement of paper PMC10307832.

What all share (experiment): relative viability (nuclei count vs DMSO), 5 days (fraction); higher = more cells survive
Compound in experiment [1]: Cc1ccccc1C(C(=O)NC1CCCCC1)N(C(=O)Cn1ccnc1C)c1cccc(F)c1 [IDH-C35] + O=C(c1cc(Cc2n[nH]c(=O)c3ccccc23)ccc1F)N1CCN(C(=O)C2CC2)CC1 [Olaparib] (partner 8 µM)
The procedure, abridged: (§1)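 Lung cancer cell lines were pin-tool dosed in 1536-well plates on the day after seeding, with either a lone drug or a fixed anchor-drug dose plus five library-drug doses (not always all listed) in √10 steps. Nuclei were counted on 4× images after 5 days. Relative viability is the ratio of treated-well to vehicle-well nuclei counts, with each value a median of duplicate plates.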

Compound in experiment [2]: Cc1ccccc1C(C(=O)NC1CCCCC1)N(C(=O)Cn1ccnc1C)c1cccc(F)c1 [IDH-C35] + Cc1nc(Nc2ncc(C(=O)Nc3c(C)cccc3Cl)s2)cc(N2CCN(CCO)CC2)n1 [Dasatinib] (partner 0.075 µM)
The method, boiled down:
as §1

Compound in experiment [3]: CC1=C(C(=NN1)C)CC2=C(C3=C(S2)N(C(=O)N(C3=O)C)CC(C)C)C(=O)N4C[C@@H](CO4)O + Cc1cc(Nc2cc(N3CCN(C)CC3)nc(Sc3ccc(NC(=O)C4CC4)cc3)n2)n[nH]1 [Tozasertib] (partner 0.1 µM)
The method, boiled down:
as §1

Compound in experiment [4]: Cc1ccccc1C(C(=O)NC1CCCCC1)N(C(=O)Cn1ccnc1C)c1cccc(F)c1 [IDH-C35] + CC(C)C[C@H](NC(=O)[C@H](Cc1ccccc1)NC(=O)c1cnccn1)B(O)O [Bortezomib] (partner 0.002 µM)
The procedure, abridged: as §1

Turning to UMC-11, the relative viability in experiment [1] (first compound 0.08 µM) stood at 0.383; in experiment [1] (first compound 0.253 µM) it was 0.366; in experiment [1] (first compound 0.8 µM), 0.402; in experiment [1] (first compound 2.53 µM) it was 0.382; in experiment [1] (first compound 8 µM), 0.445; in experiment [2] (first compound 0.08 µM) it was 0.416. Further, the relative viability in experiment [2] (first compound 0.253 µM) came to 0.472; in experiment [2] (first compound 0.8 µM) it was 0.474; in experiment [2] (first compound 2.53 µM), 0.532; in experiment [2] (first compound 8 µM) it was 0.443; in experiment [3] (first compound 0.0025 µM) it was 0.199; in experiment [3] (first compound 0.007906 µM), 0.172. Further, the relative viability is 0.196 in experiment [3] (first compound 0.025 µM); 0.207 in experiment [3] (first compound 0.07906 µM); 0.175 in experiment [3] (first compound 0.25 µM); 0.736 in experiment [4] (first compound 0.08 µM); 0.737 in experiment [4] (first compound 0.253 µM); 0.487 in experiment [4] (first compound 0.8 µM). Moreover, the results for the relative viability in experiment [4] (first compound 2.53 µM) and in experiment [4] (first compound 8 µM) were 0.65 and 0.636, respectively.
